As usually defined, the Ki is a dissociation constant, usually derived from enzyme kinetics or from competition with a known ligand. A low value points to tighter binding.

Molecules are shown by their SMILES.

This is an account of results in patent publication US6500803B1, “Factor VIIa inhibitors” (Aventis Pharma Deutschland GmbH, priority 1999, dated 2002).

For the assay, the target named is T1, factor VIIa/tissue factor (Homo sapiens, UniProt P08709).
T1 construct: human factor VIIa and TF (5 nM and 10 nM, respective final concentration)
In words: Factor VIIa (FVIIa) chromogenic assay. It counts as biochemical. The conditions noted are these: human factor VIIa 5 nM and TF 10 nM, chromogenic substrate S-2288 500 μM, 15 min preincubation, 25° C., pH 8.15. The procedure:
The ability of compounds of formula I to inhibit factor VIIa or other enzymes like factor Xa, thrombin, plasmin, or trypsin can be assessed by determining the concentration of the compound of formula I that inhibits enzyme activity by 50%, i.e., the IC50 value, which is related to the inhibition constant Ki. Purified enzymes are used in chromogenic assays. The concentration of inhibitor that causes a 50% decrease in the rate of substrate hydrolysis is determined by linear regression after plotting the relative rates of hydrolysis (compared to the uninhibited control) versus the log of the concentration of the compound of formula I. For calculating the inhibition constant Ki, the IC50 value is corrected for competition with substrate using the formula: Ki=IC50/{1+(substrate concentration/Km)} wherein Km is the Michaelis-Menten constant (Chen and Prusoff, Biochem. Pharmacol. 22 (1973), 3099-3108; I. H. Segal, Enzyme Kinetics, John Wiley & Sons, New York (1975) 100-125; which are incorporated herein by reference).
a) Factor VIIa (FVIIa) Assay
The inhibitory activity (expressed as inhibition constant Ki (FVIIa)) of compounds of formula I towards factor VIIa/tissue factor activity was determined using a chromogenic assay essentially as described previously (J. A. Ostrem et al., Biochemistry 37 (1998) 1053-1059, which is incorporated herein by reference). Kinetic assays were conducted at 25° C. in half-area microtiter plates (Costar Corp., Cambridge, Mass.) using a kinetic plate reader (Molecular Devices Spectramax 250). A typical assay consisted of 25 μl of human factor VIIa and TF (5 nM and 10 nM, respective final concentration) combined with 40 μl of inhibitor dilutions in 10% DMSOFTBS-PEG buffer (50 mM Tris, 15 mM NaCl, 5 mM CaCl2, 0.05% PEG 8000, pH 8.15). Following a 15 min preincubation period, the assay was initiated by the addition of 35 μl of the chromogenic substrate S-2288 (D-Ile-Pro-Arg-p-nitroanilide, Pharmacia Hepar Inc., 500 μM final concentration).

T1 sequence (P08709 213-466 limits assumed): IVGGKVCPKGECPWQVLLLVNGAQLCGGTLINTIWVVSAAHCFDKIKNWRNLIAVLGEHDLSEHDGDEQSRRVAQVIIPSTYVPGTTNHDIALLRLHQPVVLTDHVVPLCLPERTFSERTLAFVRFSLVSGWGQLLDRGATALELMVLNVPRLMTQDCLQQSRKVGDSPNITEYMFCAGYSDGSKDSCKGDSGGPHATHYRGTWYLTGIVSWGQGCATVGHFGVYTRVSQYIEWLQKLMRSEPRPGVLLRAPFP
T1 sequence (P08709 61-212 limits assumed): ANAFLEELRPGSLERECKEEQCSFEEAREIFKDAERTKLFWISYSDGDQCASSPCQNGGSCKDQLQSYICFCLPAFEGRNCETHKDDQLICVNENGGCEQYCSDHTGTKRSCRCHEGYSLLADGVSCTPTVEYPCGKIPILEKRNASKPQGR
T1 sequence (P13726 33-295 partner): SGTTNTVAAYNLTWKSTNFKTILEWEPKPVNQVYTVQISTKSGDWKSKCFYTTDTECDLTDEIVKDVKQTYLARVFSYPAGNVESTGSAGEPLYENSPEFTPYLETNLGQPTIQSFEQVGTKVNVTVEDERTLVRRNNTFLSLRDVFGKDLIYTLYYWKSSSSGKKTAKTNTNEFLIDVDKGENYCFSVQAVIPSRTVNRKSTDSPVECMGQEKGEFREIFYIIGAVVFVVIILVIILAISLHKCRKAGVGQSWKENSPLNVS

In the case of `C=CCOC(=O)N[C@@H](Cc1ccc(C(=N)N)cc1)C(=O)N[C@@H](CCC(=O)O)C(=O)NCc1cccc(CN)c1` [Example 37], the Ki was 3.7 µM.
Regarding `C=CCOC(=O)N[C@@H](Cc1ccc(C(=N)N)cc1)C(=O)N[C@@H](CCC(=O)O)C(=O)NCc1cccc(N)c1` [Example 2, Alloc-pAph-Glu-(3-aminobenzyl)amide], the Ki amounted to 0.2 µM.
For `C=CCOC(=O)N[C@@H](Cc1ccc(C(=N)N)cc1)C(=O)N[C@@H](CCC(=O)O)C(=O)Nc1nc(CC(N)=O)cs1` [Example 12, Alloc-pAph-Glu-(4-carbamoylmethylthiazol-2-yl)amide] the value was 44.1 µM.
Compound `C=CCOC(=O)N[C@@H](Cc1ccc(C(=N)N)cc1)C(=O)N[C@@H](CCC(=O)O)C(=O)NCCc1ccc(N)cc1` [Example 3, Alloc-pAph-Glu-(2-(4-aminophenyl)ethyl)amide] yielded a Ki of 0.8 µM.
The compound `C=CCOC(=O)N[C@@H](Cc1ccc(C(=N)N)cc1)C(=O)N[C@@H](CCC(=O)O)C(=O)NCCCNC(=O)OCC` [Example 7, Alloc-pAph-Glu-(3-ethoxycarbonylaminopropyl)amide] had a Ki of 0.8 µM.
For `C=CCOC(=O)N[C@@H](Cc1ccc(C(=N)N)cc1)C(=O)N[C@@H](CCC(=O)O)C(=O)NCCCNS(=O)(=O)c1cccc(Br)c1` [Example 26] the value was 0.3 µM.
`C=CCOC(=O)N[C@@H](Cc1ccc(C(=N)N)cc1)C(=O)N[C@@H](CCC(=O)O)C(=O)NCc1ccc(N)cc1` [Example 1, Alloc-pAph-Glu-(4-aminobenzyl)amide]: the Ki came out at 0.4 µM.
For `C=CCOC(=O)N[C@@H](Cc1ccc(C(=N)N)cc1)C(=O)N[C@@H](CCC(=O)O)C(=O)NCc1cccc(CNS(=O)(=O)c2ccc(OC)cc2)c1` [Example 19] the value was 0.68 µM.
`C=CCOC(=O)N[C@@H](Cc1ccc(C(=N)N)cc1)C(=O)N[C@@H](CCC(=O)O)C(=O)NCCCN` [Example 38] gave a Ki of 3.82 µM.
In turn, `C=CCOC(=O)N[C@@H](Cc1ccc(C(=N)N)cc1)C(=O)N[C@@H](CCC(=O)O)C(=O)NCc1cccc(CNS(C)(=O)=O)c1` [Example 20] gave a Ki of 2.03 µM.
`C=CCOC(=O)N[C@@H](Cc1ccc(C(=N)N)cc1)C(=O)N[C@@H](CCC(=O)O)C(=O)NCc1cccc(CNS(=O)(=O)c2cccc3ccccc23)c1` [Example 18] displayed a Ki of 1.8 µM.
On to `C=CCOC(=O)N[C@@H](Cc1ccc(C(=N)N)cc1)C(=O)N[C@@H](CCC(=O)O)C(=O)NC1CCN(S(=O)(=O)c2cccc(C(F)(F)F)c2)CC1` [Example 31], for which the affinity corresponds to a Ki of 0.64 µM.
The figure for `C=CCOC(=O)N[C@@H](Cc1ccc(C(=N)N)cc1)C(=O)N[C@@H](CCCC(=O)O)C(=O)NCc1cccc(N)c1` [Example 15, Alloc-pAph-2-Aad-(3-aminobenzyl)amide] is 75.7 µM; for `C=CCOC(=O)N[C@@H](Cc1ccc(C(=N)N)cc1)C(=O)N[C@@H](CCC(=O)O)C(=O)NC1CCN(S(=O)(=O)c2cccc(Cl)c2)CC1` [Example 32] it is 0.56 µM; for `C=CCOC(=O)N[C@@H](Cc1ccc(C(=N)N)cc1)C(=O)N[C@@H](CCC(=O)O)C(=O)NCc1cccc(CNS(=O)(=O)N(C)C)c1` [Example 21] it is 0.62 µM.
The figure for `C=CCOC(=O)N[C@@H](Cc1ccc(C(=N)N)cc1)C(=O)N[C@@H](CC(=O)O)C(=O)NCc1cccc(N)c1` [Example 14, Alloc-pAph-Asp-(3-aminobenzyl)amide] is 3.4 µM.
The figure for `C=CCOC(=O)N[C@@H](Cc1ccc(C(=N)N)cc1)C(=O)N[C@@H](CCC(=O)O)C(=O)NC1c2ccccc2-c2ccc(N)cc21` (mixture of isomers) [Example 6, Alloc-pAph-Glu-((RS)-2-amino-9H-fluorene-9-yl)amide] is 0.4 µM; for `C=CCOC(=O)N[C@@H](Cc1ccc(C(=N)N)cc1)C(=O)N[C@@H](CCC(=O)O)C(=O)NCc1cccc(CNS(=O)(=O)C=Cc2ccccc2)c1` [Example 22] it is 1.46 µM; for `C=CCOC(=O)N[C@@H](Cc1ccc(C(=N)N)cc1)C(=O)N[C@@H](CCC(=O)O)C(=O)NCCCNS(=O)(=O)c1cc(Cl)cc(Cl)c1` [Example 10, Alloc-pAph-Glu-(3-(3,5-dichlorobenzenesulfonylamino)propyl)amide] it is 0.68 µM.
The compound `C=CCOC(=O)N[C@@H](Cc1ccc(C(=N)N)cc1)C(=O)N[C@@H](CCC(=O)O)C(=O)NCCCNS(=O)(=O)c1ccc(OC)cc1` [Example 28] yielded a Ki of 0.28 µM.
The figure for `C=CCOC(=O)N[C@@H](Cc1ccc(C(=N)N)cc1)C(=O)N[C@@H](CCC(=O)O)C(=O)NCc1ccccc1N` [Example 5, Alloc-pAph-Glu-(2-aminobenzyl)amide] is 0.6 µM; for `C=CCOC(=O)NC(Cc1ccc(C(=N)N)cc1)C(=O)NC(CCC(=O)O)C(=O)NCc1ccc(O)cc1O` (stereo not drawn) [Example 4, Alloc-pAph-Glu-(2,4-dihydroxybenzyl)amide] it is 0.7 µM.
For `C=CCOC(=O)N[C@@H](Cc1ccc(C(=N)N)cc1)C(=O)N[C@@H](CCC(=O)O)C(=O)NCc1cnc(C)nc1N` [Example 13, Alloc-pAph-Glu-(4-amino-2-methylpyrimidin-5-ylmethyl)amide] the value was 1.9 µM; for `C=CCOC(=O)N[C@@H](Cc1ccc(C(=N)N)cc1)C(=O)N[C@@H](CCC(=O)O)C(=O)NC1CCN(S(=O)(=O)c2cccc(Br)c2)CC1` [Example 30], 0.43 µM.
The figure for `C=CCOC(=O)N[C@@H](Cc1ccc(C(=N)N)cc1)C(=O)N[C@@H](CCC(=O)O)C(=O)NCc1cccc(CNS(=O)(=O)c2ccc(F)cc2)c1` [Example 25] is 1.88 µM; for `C=CCOC(=O)N[C@@H](Cc1ccc(C(=N)N)cc1)C(=O)N[C@@H](CCC(=O)O)C(=O)NCc1cccc(CNS(=O)(=O)c2ccc(Cl)s2)c1` [Example 24] it is 0.89 µM; for `C=CCOC(=O)N[C@@H](Cc1ccc(C(=N)N)cc1)C(=O)N[C@@H](CCC(=O)O)C(=O)NCc1cccc(CNS(=O)(=O)c2ccc3ccccc3c2)c1` [Example 11, Alloc-pAph-Glu-(3-((naphthalene-2-sulfonylamino)methyl)benzyl)amide] it is 0.8 µM.
